The source of these data is US11806359B2 (priority 2020, dated 2023).

Some results are limits rather than exact numbers.

Data set [1] can be described thus: In vitro cellular assay for release of lactate dehydrogenase. Type of data set: cell-based. How it is done: Proof of the safety of the oleandrin-containing composition was further provided by in vitro cellular assay for determining the release of lactate dehydrogenase after exposure of said cells to solutions containing different concentrations of oleandrin. It was determined that up to concentrations of 1 microg/mL, there was no additional toxicity over control vehicle.

Data set [2] has as its system HTLV-1+ SLB1 lymphoma T-cell-line. Put plainly: Cytotoxicity/apoptosis in HTLV-1+ SLB1 cells, Annexin V-FITC/PI staining. Type of data set: cell-based. Conditions: 72 hrs. The procedure:
SLB1 T-cells were treated with increasing concentrations (10, 50, and 100 μg/ml) of oleandrin or a N. oleander extract for 72 hrs as described herein. As a negative control, the cells were also treated with increasing amounts (1.5, 7.5, and 15 μg) of the vehicle solution which corresponded to the volumes used in the drug-treated cultures. Cyclophosphamide (50 μM; Sigma-Aldrich)-treated cells were included as a positive control for apoptosis. Then, the samples were washed and stained with Annexin V-FITC and propidium iodide (PI) and analyzed by confocal fluorescence-microscopy. The relative percentages of Annexin V-FITC and/or PI-positive cells were quantified by fluorescence-microscopy and counting triplicate visual fields using a 20× objective lens.
To assess the relative cytotoxicity of the oleandrin compound, extract of N. oleander, or the Vehicle control in treated cell cultures, 2×10^4 HTLV-1+ SLB1 lymphoma T-cells or activated/cultured huPBMCs were plated in 300 μl of complete medium, supplemented with antibiotics, and maintained at 37.0 under 10% CO2 in a humidified incubator. The cultures were treated with either increasing concentrations (10, 50, and 100 μg/ml) of oleandrin or N. oleander extract, or the Vehicle control ([…]) and incubated for 72 hrs. […] The total numbers of cells per field were quantified by microscopy using a DIC phase-contrast filter.

For data set [3], the system named is DENV2 (08-10381 Montserrat strain). Put plainly: CPE-based antiviral assay, DENV2, neutral red readout (Example 14). In kind it is cell-based, Dengue virus. The note with it: 7 days post infection. How it is done:
A CPE-based antiviral assay was performed by infecting target cells in the presence or absence of test compositions, at a range of concentrations. […] cytopathic effects and cell death. […] For CPE-based assays, cell viability was determined with a neutral red readout. Viable cells incorporate neutral red in their lysosomes. Uptake of neutral red relies on the ability of live cells to maintain a lower pH inside their lysosomes than in the cytoplasm, and this active process requires ATP. Once inside the lysosome, the neutral red dye becomes charged and is retained intracellularly. […] The amount of neutral red in solution was quantified by reading the absorbance (optical density) of each well at 490 nm […]
Cytotoxic effects were evaluated in uninfected cells by comparing viability in the presence of inhibitors to the viability of mock-treated cells. Cytotoxicity was determined by an XTT viability assay, which was conducted at the same timepoint as the readout for the corresponding infection assay.
Test compositions were dissolved in 100% methanol. […] When possible, the EC50 and CC50 of the composition was determined for each assay using GraphPad Prism software. […]
Protection of DENV2-induced cytopathic effect (CPE) with Neutral Red readout: For the DENV2 antiviral assay, the 08-10381 Montserrat strain was used. […]

Data set [4] concerns HTLV-1. The data set is described as follows: HTLV-1 transmission in SLB1/huPBMC co-culture, p19Gag ELISA (Example 22). Type of data set: cell-based, human T-cell leukemia virus type-1. The note with it: 15 min or 3 hrs pre-treatment, 72 hrs co-culture.
For another data set, the system named is adenovirus. Put plainly: Antiviral activity against adenovirus. Type of data set: cell-based.
Data set [5] has as its system HTLV-1. Put plainly: Virological synapse formation and HTLV-1 transmission, SLB1/pLenti-GFP with huPBMCs, fluorescence microscopy. In kind it is cell-based, human T-cell leukemia virus type-1. The note with it: in vitro co-culture.
The subject of a further data set is Marburgvirus (MARV/Ci67). In kind it is cell-based. The note with it: based on the oleandrin content; final concentration of compositions 20 microg/mL.
The test system of a further data set is HIV-1. The note with it: Singh et al. 2013; cited from earlier work.

With `CO[C@H]1C[C@H](O[C@H]2CC[C@@]3(C)[C@H](CC[C@@H]4[C@@H]3CC[C@]3(C)[C@@H](C5=CC(=O)OC5)[C@@H](OC(C)=O)C[C@]43O)C2)O[C@@H](C)[C@@H]1O` [oleandrin], in data set [1], the “concentration up to which no additional toxicity over control vehicle” value is at most 1000 ng/mL. Further, in data set [2] (10 μg/ml), the “cytotoxicity/apoptosis at the lowest concentration” value is on record as “did not induce significant cytotoxicity/apoptosis”. Further, in data set [2] (treated HTLV-1+ SLB1 cells), the “cytotoxicity compared with the Vehicle control” value is “not significantly higher than the Vehicle control”. Further, in data set [3], the “efficacy against Dengue virus” value is on record as “demonstrates efficacy”. For the same compound, the “transmission of HTLV-1 in co-culture” value with HTLV-1 [4] is “inhibited the transmission of HTLV-1”. Further, in the data set with adenovirus, the activity against adenovirus entry was “insufficiently active”. In addition, the “formation of virological synapses and transmission of HTLV-1” value in the data set on HTLV-1 [5] was “inhibited the formation of virological synapses and the transmission of HTLV-1”. In addition, the “efficacy against Marburgvirus” value in the data set on Marburgvirus (MARV/Ci67) is reported as “efficacious”. Also, the “HIV-1 viral infectivity in vitro” value in the data set with HIV-1 is “inhibit viral infectivity in vitro”.
